Laboratory results taken from patent publication US6608082B1, “Treatment of erectile dysfunction using isoquinoline compound melanocortin receptor ligands” (Lion Bioscience AG, priority 1998, dated 2003).
Read-outs that look alike come from different tables or passages of the source. Each block holds one molecule with its values, some of them ahead of it.

Columns and labels:
[1] = target: T1, MCR-1 (Homo sapiens, UniProt Q01726); experiment: Melanocortin receptor binding assay, competition with 125I-HP 467, HEK 293 cells expressing hMCR-1; conditions: for IC50: read-out: MC-1 IC50; for % Disp. MC-1 10 μM: displacement of 125I-HP 467 at 10 μM isoquinoline compound
T1 construct: expressed in transfected cells; host or cells: HEK 293
In short: (§1)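 Test compounds compete on intact HEK 293 cells carrying hMCR-1 (2×10^4 per tube) or hMCR-4 (4×10^3 per tube), suspended in PBS, 10% calf serum, 1 mM CaCl2.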

[2] = target: T2, MCR-4 (Homo sapiens, UniProt P32245); experiment: Melanocortin receptor binding assay, competition with 125I-HP 467, HEK 293 cells expressing hMCR-4; conditions: for IC50: read-out: MC-4 IC50
T2 construct: expressed in transfected cells; host or cells: HEK 293
In short: as §1

[3] = inhibition of binding of 125I-HP 467, HEK 293 cells expressing MCR-1, TRG 2414 library
[4] = inhibition of binding of 125I-HP 467, HEK 293 cells expressing MCR-4, TRG 2414 library
[5] = TRG 2414 library, inhibition of binding of 125I-HP 467, HEK 293 cells expressing MCR-1
[6] = TRG 2414 library, inhibition of binding of 125I-HP 467, HEK 293 cells expressing MCR-4
[7] = TRG 2408 and TRG 2409 libraries, inhibition of 125I-HP 467 binding
[8] = inhibition of binding of 125I-HP 467, HEK 293 cells expressing MCR-1
[9] = inhibition of binding of 125I-HP 467, HEK 293 cells expressing MCR-4
[10] = TRG 2406 and TRG 2407 libraries, inhibition of binding of 125I-HP 467
[11] = competition with 125I-HP 467, HEK 293 cells expressing MCR-1
[12] = competition with 125I-HP 467, HEK 293 cells expressing MCR-4

T2 sequence (P32245 whole entry): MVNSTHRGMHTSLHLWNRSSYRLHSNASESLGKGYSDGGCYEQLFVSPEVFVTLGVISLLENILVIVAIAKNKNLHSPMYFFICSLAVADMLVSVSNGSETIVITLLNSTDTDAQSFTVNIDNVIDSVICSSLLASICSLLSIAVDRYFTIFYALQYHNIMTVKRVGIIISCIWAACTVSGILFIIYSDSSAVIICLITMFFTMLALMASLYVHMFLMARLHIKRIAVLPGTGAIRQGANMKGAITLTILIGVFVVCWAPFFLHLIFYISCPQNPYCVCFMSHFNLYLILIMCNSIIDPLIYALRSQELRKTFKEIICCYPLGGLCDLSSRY
T1 sequence (Q01726 whole entry): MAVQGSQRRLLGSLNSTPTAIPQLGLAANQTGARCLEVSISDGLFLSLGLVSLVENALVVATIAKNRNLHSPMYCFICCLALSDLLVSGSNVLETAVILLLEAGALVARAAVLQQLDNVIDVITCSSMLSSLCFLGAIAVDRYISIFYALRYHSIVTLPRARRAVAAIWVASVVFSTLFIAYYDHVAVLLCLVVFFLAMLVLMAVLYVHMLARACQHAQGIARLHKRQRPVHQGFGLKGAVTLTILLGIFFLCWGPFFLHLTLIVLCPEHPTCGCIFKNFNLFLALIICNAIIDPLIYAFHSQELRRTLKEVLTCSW

Compound: CCCOc1ccc(C2C(CNC3CCCCCC3)c3ccccc3CN2CCCCC(CN)NCCc2ccccc2)cc1 (stereo not shown) [Cmpd 194]
IC50 [1, 5]: 3.86 µM
IC50 [2, 6]: 5.09 µM

Compound: COc1ccccc1CCNCC1c2ccccc2CN(CCCCC(N)CN)C1c1ccc(Oc2ccccc2)cc1 (stereo not shown) [Cmpd 265]
MC-1 IC50 [1, 5]: no fit
MC-4 IC50 [2, 6]: no fit

Compound: NC[C@@H](CCCCN1Cc2ccccc2C(CNC2CCCCC2)C1c1ccc(Cl)cc1Cl)NCCc1ccccc1 (stereo partly shown) [TRG 2408-42]
IC50 [1, 7]: 1.93 µM
IC50 [2, 7]: 4.24 µM

Compound: CCCCNc1ccc(C2C(CNCCc3ccccc3)c3ccccc3CN2CCCC(CN)N2CCCC2)cc1 (stereo not shown) [TRG 2411-192]
IC50 [1, 8]: 0.07 µM
IC50 [2, 9]: 0.88 µM

Compound: COc1ccc(CNC(CN)CCCCN2Cc3ccccc3C(CNCCc3ccc(Oc4ccccc4)cc3)C2c2cc(C(F)(F)F)cc(C(F)(F)F)c2)cc1 (stereo not shown) [TRG 2421-29]
IC50 [1, 8]: 5.1 µM
IC50 [2, 9]: 7.92 µM

Compound: CCCOc1ccc(C2C(CNCCc3ccc(OC)cc3)c3ccccc3CN2CCCCC(CN)NCc2ccccc2)cc1 (stereo not shown) [Cmpd 187]
IC50 [1, 5]: 1.07 µM
IC50 [2, 6]: 1.47 µM

Compound: CNC(CN)CN1Cc2ccccc2C(CNCc2ccccc2O)C1c1cccc(Oc2ccc(OC)cc2)c1 (stereo not shown) [TRG 2406-6]
IC50 [1, 10]: 3.17 µM
IC50 [2, 10]: 1.36 µM

Compound: COc1ccc(CCNCC2c3ccccc3CN(CCCCC(CN)NCc3ccc(Br)cc3)C2c2cc(C(F)(F)F)cc(C(F)(F)F)c2)cc1 (stereo not shown) [TRG 2421-13]
IC50 [1, 8]: 4.41 µM
IC50 [2, 9]: 8.11 µM

Compound: CCCCNc1ccc(C2C(CNC3CCCCC3)c3ccccc3CN2CCCC(CN)NCc2ccc(OC)cc2)cc1 (stereo not shown) [TRG 2411-212]
IC50 [1, 8]: 0.1 µM
IC50 [2, 9]: 1.93 µM

Compound: CCCCNc1ccc(C2C(CNCCc3ccccc3)c3ccccc3CN2CCCC(CN)NCCc2ccc(Br)cc2)cc1 (stereo not shown) [TRG 2411-194]
IC50 [1, 8]: 0.24 µM
IC50 [2, 9]: 1.36 µM

Compound: CCNc1ccc(C2C(CNC3CCCCC3)c3ccccc3CN2CCCCC(CN)NCCc2ccccc2)cc1 (stereo not shown) [TRG 2408-32]
IC50 [1, 7]: 1.15 µM
IC50 [2, 7]: 9.44 µM

Compound: CCNc1ccc(C2C(CNCCc3ccccc3)c3ccccc3CN2CCCC(CN)NCCCCCN(CC)CC)cc1 (stereo not shown) [TRG 2420-3]
IC50 [1, 8]: 0.03 µM
IC50 [2, 9]: 8.23 µM

Compound: CNC(CN)CN1Cc2ccccc2C(CNC2CCCCC2)C1c1cccc(O)c1 (stereo not shown) [TRG 2405-133]
IC50 ([1]; TRG 2405 section, inhibition of binding of 125I-HP 467, HEK 293 cells expressing MCR-1): 20 µM
% Disp. MC-1 10 μM ([1]; first of duplicate): 37.7%
% Disp. MC-1 10 μM ([1]; second of duplicate): 44.1%
IC50 ([2]; TRG 2405 section, inhibition of binding of 125I-HP 467, HEK 293 cells expressing MCR-4): 12.4 µM

Compound: CNC(CN)CCCCN1Cc2ccccc2C(CNCc2ccc(Cl)cc2)C1c1ccc(Cl)cc1Cl (stereo not shown) [TRG 2407-18]
IC50 [1, 10]: 3.31 µM
IC50 [2, 10]: 2.83 µM

Compound: NCC(CCCCN1Cc2ccccc2C(CNCCc2ccc(Cl)cc2)C1c1cc(C(F)(F)F)cc(C(F)(F)F)c1)NCc1ccccc1 (stereo not shown) [TRG 2421-31]
IC50 [1, 8]: 5.9 µM
IC50 [2, 9]: 2.77 µM

Compound: CCCCNC(CN)CCCCN1Cc2ccccc2C(CNCCc2ccccc2)C1c1ccc(NCC)cc1 (stereo not shown) [TRG 2411-38]
IC50 [1, 11]: 0.09 µM
IC50 [2, 12]: 1.33 µM

Compound: CC(C)Cc1ccc(C(C)CNC(CN)CCCCN2Cc3ccccc3C(CNCc3ccccc3C(F)(F)F)C2c2ccccc2Br)cc1 (stereo not shown) [Cmpd 204]
MC-1 IC50 [1, 5]: no fit
MC-4 IC50 [2, 6]: no fit

Compound: CCNc1ccc(C2C(CNCCc3ccccc3)c3ccccc3CN2CCCC(CN)NCCOCCNCc2ccccc2)cc1 (stereo not shown) [TRG 2420-10]
IC50 [1, 8]: 0.055 µM
IC50 [2, 9]: 0.94 µM

Compound: NCC(CCCCN1Cc2ccccc2C(CNCCc2ccccc2)C1c1cccc(C(F)(F)F)c1)NCc1ccccc1 (stereo not shown) [TRG 2421-41]
IC50 [1, 8]: 2.51 µM
IC50 [2, 9]: 1.72 µM

Compound: CCNc1ccc(C2C(CNC3CCCCC3)c3ccccc3CN2CCCCC(CN)NCCN)cc1 (stereo not shown) [TRG 2408-33]
IC50 [1, 7]: 1.06 µM
IC50 [2, 7]: 38.7 µM

Compound: CNC(CN)CCCCN1Cc2ccccc2C(CNC2CCCCC2)C1c1ccc(NCCC2CC3CCC2C3)cc1 (stereo not shown) [TRG 2409-22]
IC50 [1, 11]: 1.53 µM
IC50 [2, 12]: 12.3 µM

Compound: CCNc1ccc(C2C(CNCCc3ccccc3)c3ccccc3CN2CCCC(CN)NCCCCCNCc2ccccc2)cc1 (stereo not shown) [TRG 2420-2]
IC50 [1, 8]: 0.076 µM
IC50 [2, 9]: 4.05 µM

Compound: CNC(CN)CCCCN1Cc2ccccc2C(CNC2CCCCC2)C1c1ccc(NCCc2ccc(OC)cc2)cc1 (stereo not shown) [TRG 2409-21]
IC50 [1, 11]: 2.63 µM
IC50 [2, 12]: 14.7 µM

Compound: CCCCNc1ccc(C2C(CNCCc3ccccc3)c3ccccc3CN2CCCCC(CN)NCc2ccc(Cl)cc2)cc1 (stereo not shown) [TRG 2411-81]
IC50 [1, 11]: 0.18 µM
IC50 [2, 12]: 1.38 µM

Compound: CCCCNc1ccc(C2C(CN)c3ccccc3CN2CCCCC(CN)NCCc2ccc(Br)cc2)cc1 (stereo not shown) [TRG 2411-105]
IC50 [1, 11]: 0.21 µM
IC50 [2, 12]: 0.91 µM

Compound: CCCCNc1ccc(C2C(CNCCc3ccccc3)c3ccccc3CN2CCCCC(CN)NCc2ccc(OC)cc2)cc1 (stereo not shown) [TRG 2411-82]
IC50 [1, 11]: 0.29 µM
IC50 [2, 12]: 1.46 µM

Compound: NCC(N)CCCCN1Cc2ccccc2C(CNCCc2cccc(Cl)c2)C1c1ccccc1Br (stereo not shown) [Cmpd 213]
IC50 [1, 5]: 6.48 µM
IC50 [2, 6]: 2.06 µM

Compound: CCCCNc1ccc(C2C(CNC3CCCCC3)c3ccccc3CN2CCCCC(CN)NCCc2ccc3ccccc3c2)cc1 (stereo not shown) [TRG 2411-96]
IC50 [1, 11]: 0.6 µM
IC50 [2, 12]: 1.65 µM

Compound: CCNc1ccc(C2C(CNC3CCCCC3)c3ccccc3CN2CCCCC(CN)NCc2ccccc2)cc1 (stereo not shown) [TRG 2411-54]
IC50 [1, 11]: 0.13 µM
IC50 [2, 12]: 1.79 µM

Compound: CCNc1ccc(C2C(CNc3ccccc3)c3ccccc3CN2CCCCC(CN)NC)cc1 (stereo not shown) [TRG 2407-41]
IC50 [1, 10]: 5.87 µM
IC50 [2, 10]: 17 µM

Compound: CNC(CN)CCCCN1Cc2ccccc2C(CNCc2cccc(OC)c2)C1c1ccc(Cl)cc1Cl (stereo not shown) [TRG 2407-16]
IC50 [1, 10]: 5.83 µM
IC50 [2, 10]: 1.81 µM

Compound: CCCCNc1ccc(C2C(CNC3CCCCC3)c3ccccc3CN2CCCCC(CN)NCc2ccc(Cl)cc2)cc1 (stereo not shown) [TRG 2411-94]
IC50 [1, 11]: 0.09 µM
IC50 [2, 12]: 1.71 µM

Next, values leading:

IC50 [1, 3]: 3.55 µM
IC50 [2, 4]: 4.42 µM
Compound: NCC(CCCCN1Cc2ccccc2C(CNC2CCCCCC2)C1c1ccc(Cl)cc1Cl)NCCc1ccccc1 (stereo not shown) [TRG 2414-34]

IC50 [1, 3]: 13.9 µM
IC50 [2, 4]: 7.42 µM
Compound: COc1ccc(CCNCC2c3ccccc3CN(CCCCC(CN)NCC(C)c3ccc(CC(C)C)cc3)C2c2ccc(Cl)cc2Cl)cc1 (stereo not shown) [TRG 2414-28]

IC50 [1, 3]: 5.66 µM
IC50 [2, 4]: 4.4 µM
Compound: NCC(N)CCCCN1Cc2ccccc2C(CNCc2ccccc2)C1c1ccc(Cl)cc1Cl (stereo not shown) [TRG 2414-29]

IC50 [1, 3]: 2.86 µM
IC50 [2, 4]: 2.69 µM
Compound: NCC(N)CCCCN1Cc2ccccc2C(CNCc2ccccc2)C1c1ccc(Oc2ccccc2)cc1 (stereo not shown) [TRG 2414-149]

IC50 [1, 8]: 0.273 µM
IC50 [2, 9]: 4.54 µM
Compound: CCCCCc1ccc(C2C(CN)c3ccccc3CN2CCCC[C@@H](CN)NCC)cc1 (stereo partly shown) [TRG 2415-20]

IC50 [1, 3]: 8.13 µM
IC50 [2, 4]: 27.8 µM
Compound: NCC(N)CCCCN1Cc2ccccc2C(CNCc2ccccc2C(F)(F)F)C1c1ccc(Oc2ccccc2)cc1 (stereo not shown) [TRG 2414-121]

IC50 [1, 3]: 10.5 µM
IC50 [2, 4]: 3.2 µM
Compound: COc1ccc(CCNCC2c3ccccc3CN(CCCCC(CN)NCCc3ccccc3)C2c2cc(C(F)(F)F)cc(C(F)(F)F)c2)cc1 (stereo not shown) [TRG 2414-66]

IC50 [1, 3]: 3.9 µM
IC50 [2, 4]: 7.03 µM
Compound: NCC(CCCCN1Cc2ccccc2C(CNCc2ccccc2)C1c1ccc(Cl)cc1Cl)NCc1ccccc1 (stereo not shown) [TRG 2414-31]

IC50 [1, 3]: 13.2 µM
IC50 [2, 4]: 9.61 µM
Compound: COc1cccc(CNCC2c3ccccc3CN(CCCCC(CN)NCCc3ccccc3)C2c2cccc(Oc3ccccc3)c2)c1 (mixture of isomers) [TRG 2414-98]

IC50 [1, 3]: 16.9 µM
IC50 [2, 4]: 8.2 µM
Compound: NCC(CCCCN1Cc2ccccc2C(CNCCc2cccc(Cl)c2)C1c1cccc(Oc2ccccc2)c1)NCCc1ccccc1 (stereo not shown) [TRG 2414-94]

IC50 [1, 3]: 4.38 µM
IC50 [2, 4]: 11.3 µM
Compound: COc1ccc(CNCC2c3ccccc3CN(CCCCC(CN)NCCc3ccccc3)C2c2ccc(Oc3ccccc3)cc2)cc1 (stereo not shown) [TRG 2414-142]

IC50 [1, 3]: 1.39 µM
IC50 [2, 4]: 0.52 µM
Compound: COc1ccc(CCNCC2c3ccccc3CN(CCCC[C@H](N)CN)C2c2ccc(Cl)cc2Cl)cc1 (stereo partly shown) [TRG 2414-25]

IC50 [1, 3]: 32.8 µM
IC50 [2, 4]: 30.2 µM
Compound: NCC(CCCCN1Cc2ccccc2C(CNCc2ccccc2C(F)(F)F)C1c1cc(C(F)(F)F)cc(C(F)(F)F)c1)NCCc1ccccc1 (stereo not shown) [TRG 2414-42]

IC50 [1, 3]: 8.19 µM
IC50 [2, 4]: 47.1 µM
Compound: CCCOc1ccc(C2C(CNCc3cccc(OC)c3)c3ccccc3CN2CCCCC(CN)NCC(C)c2ccc(CC(C)C)cc2)cc1 (mixture of isomers) [TRG 2414-180]

MC-1 IC50 [1, 3]: no fit
IC50 [2, 4]: 54.4 µM
Compound: CC(C)Cc1ccc(C(C)CNC(CN)CCCCN2Cc3ccccc3C(CNC3CCCCCC3)C2c2cc(C(F)(F)F)cc(C(F)(F)F)c2)cc1 (stereo not shown) [TRG 2414-76]

IC50 [1, 8]: 0.581 µM
IC50 [2, 9]: 9.35 µM
Compound: CCCOc1ccc(C2C(CN)c3ccccc3CN2CCCCC(CN)NCC)cc1 (stereo not shown) [TRG 2415-17]

IC50 [1, 8]: 1.33 µM
IC50 [2, 9]: 3.99 µM
Compound: CCNC(CN)CCCCN1Cc2ccccc2C(CN)C1c1ccc(OCC)cc1 (stereo not shown) [TRG 2415-16]
